According to paper PMC9856199, “Intact Transition Epitope Mapping—Force Differences between Original and Unusual Residues (ITEM-FOUR)” (Biomolecules, 2023):
Peptide text beside a SMILES is read from it.

How the values were obtained:
Format in all cases: binding
[1] = test system: monoclonal anti-hcTn I antibody [MF4] (ab38210 from Abcam); assay: ITEM-FOUR: nanoESI-MS gas-phase dissociation of antibody-peptide immune complexes; conditions: for binder group by ITEM-FOUR: grouping by ΔHm0g# and binding behaviour in the gas phase; for Initial [%] (immune complex amount at the lowest applied ∆CV): normalized educt ion intensity at ∆CV 2 V; for Initial [%] (immune complex amount at the lowest applied ∆CV) / Final [%] (immune complex amount at the highest applied ∆CV): antibody:peptide 1:2.2, 200 mM ammonium acetate pH 6.7, averaged from all measurements; for Final [%] (immune complex amount at the highest applied ∆CV): normalized educt ion intensity at ∆CV 80 V; for KD m0g#: apparent gas-phase dissociation constant, unitless number; for KD m0g# / kD m0g#: mean charge state, extrapolated to no excess energy; for kD m0g#: apparent gas-phase dissociation rate constant; for ΔGm0g# / ΔHm0g# / TambΔSm0g#: apparent, gas-phase immune complex dissociation; for TambΔSm0g#: Tamb 298 K; for Slope: slope of tangent along steep part of Boltzmann curve
Procedure: Starting materials and antibody-peptide complex-containing solutions were prepared as previously described. In brief, an aliquot of 25 µL (50 µg) of the monoclonal anti-hcTn I antibody [MF4] (ab38210 from Abcam, Cambridge, United Kingdom) was placed on a 10K centrifugal filter device (Merck Millipore, Carrigtwohill, Ireland) with 400 µL 200 mM ammonium acetate, pH 6.7. After centrifugation at 13,000 rpm for 7 min in an Eppendorf centrifuge (MiniSpin, Eppendorf, Hamburg, Germany), the flow through was discarded and the filter was filled-up with 450 µL 200 mM ammonium acetate, pH 6.7. This centrifugation/discarding/refilling step was repeated eight times. Afterwards, the filter was placed upside down in a new tube and centrifuged for 5 min at 4500 rpm. Approximately 50 µL of antibody solution were collected (solution 1). […] Synthesized hcTn I peptides (Table 1) were purchased as lyophilized powders (peptides and elephants, Hennigsdorf, Germany) and dissolved in 200 mM ammonium acetate, pH 6.7, to obtain peptide concentrations of ca. 2.0 mg/mL, each. The actual peptide concentrations of individual peptide solutions were determined using the Qubit^TM 2.0 Fluorometer assay. Afterwards, all peptide solutions were diluted 1:100 with 200 mM ammonium acetate, pH 6.7 (solution 2). To obtain immune-complex-containing mixtures, the antibody solution (solution 1) and the peptide solution (solution 2) were mixed to obtain final molar antibody-peptide ratios of 1:2.2 (solution 3). Typically, 4 µL of antibody solution were mixed with the appropriate volume (typically 1–2 µL) of the individual peptide solution. Solutions 3 were incubated at room temperature for at least 1 h.
For each ITEM-FOUR examination, 3 µL of the peptide, antibody, or immune complex-containing solution were loaded into nanoESI capillaries that were pulled and gold coated in house. NanoESI-MS measurements were performed with a Synapt G2-S mass spectrometer (Waters MS-Technologies, Manchester, United Kingdom) with the following settings for ITEM-FOUR measurements: capillary voltage, 1.8 kV; source temperature, 40 °C; source offset voltage, 110 V; sample cone voltage, 110 V; cone gas flow, 100 L/h; trap gas flow, 8.0 mL/min; transfer collision cell voltage, 2 V. Measurements were acquired in positive-ion resolution mode, applying a mass window of m/z 200–8000. This mass range was calibrated using 1 mg/mL sodium iodide dissolved in isopropanol/water (50:50, v/v). The quadrupole analyzer was used with the following settings: M1 = 4000, dwell time, and ramp time 25%; M2 = 5000, dwell time, and ramp time 25%; and M3 = 6000 to block transmission of lower molecular weight ions. The first collision cell (TRAP) was used to dissociate antibody-peptide complexes by increasing the collision cell voltage difference (∆CV) in a stepwise manner every 60 s. The collision cell voltage difference steps were: 2, 4, 6, 8, 12, 16, 20, 30, 40, 50, 60, 70, and 80 V. Measurements were repeated at least twice (up to seven times) per immune complex, generating a total of 32 measurement series. The mass spectrometry proteomics data have been deposited to the ProteomeXchange Consortium via the PRIDE [33] partner repository with the dataset identifier PXD038365.
MassLynx version 4.1 (Waters MS-Technologies) was used for data analysis as described previously. First, the scans of each ∆CV setting encompassing 60 s of recording were combined to generate an average mass spectrum for each ∆CV step. Next, the mass spectra were smoothened in 20 cycles with a window of 10 using the Savitzky-Golay algorithm. The ion intensities of all molecular species and their corresponding charge states (complex ions, complex-released peptides, and antibody fragments) were read after smoothing. A bell-shaped Gaussian curve of the intensities of each molecular species was calculated using Origin 2017 (32-bit) SR2 (OriginLab Corporation, Northampton, MA, USA). […]

[2] = target: monoclonal anti-hcTn I antibody [MF4] (ab38210 from Abcam); assay: Isothermal titration calorimetry of immune complex formation in solution; conditions: for ∆H / ∆G: immune complex formation in solution; for ∆H: 298 K; for ∆G: calculated from KA (van´t Hoff equation); for T∆S: T = 298 K, calculated with Gibbs-Helmholtz equation
Procedure: The monoclonal anti-hcTn I antibody [MF4] (ab38210 from Abcam, Cambridge, United Kingdom) was stored in PBS (0.138 M NaCl; 0.0027 M KCl, pH 7.4 from Sigma-Aldrich, St. Louis, MO, US), pH 7.4, and was used as purchased. The hcTn I peptides 1, 2, 4, 6, 7, and 8 were dissolved in PBS and stock solutions with 0.32 to 0.93 mg/mL peptide concentrations were prepared.
Isothermal titration calorimetry measurements were performed with an Affinity ITC instrument (Waters|TA Instruments, New Castle, DE, USA) at T = 298 K equipped with a 190 µL sample cell and a matching reference cell, AccuShot for precise delivery of the titrant, and a Flex Spin for slow speed stirring (125 rpm), efficient mixing, and highest sensitivity. The anti-hcTn I antibody was placed in the sample cell at 1.95 µM (in PBS). The hcTn I peptides, each at 40 µM (in PBS), were automatically titrated to the antibody in 18–20 steps (2 µL per step). The time between titrations was 200 s to establish a baseline between each injection for accurate heat determination and modeling.
The integrated areas under each injection peak (heat over time) were plotted against the active species’ respective molar ratios ranging from 1:0.4 to 1:6.6. An independent binding model was chosen to fit all the data and directly determine the enthalpy (ΔH) and association constant (KA). Gibbs free energy (ΔG) is calculated from the KA using the van´t Hoff equation. The change in entropy term (ΔS) is calculated applying the Gibbs-Helmholtz equation.

[3] = test system: anti-Histag antibody; assay: nanoESI-MS of peptide mixed with unrelated antibody (specificity control); conditions: binary mixture, 200 mM ammonium acetate pH 6.7
Procedure: Figure S15. Nano-ESI mass spectra of Troponin I peptide 7 (ENREVGDWPKNIDAL) upon incubation with anti-Histag […]
ion signal) and (b) with blocked transmission of low mass ions (< 4800 ) and collision cell voltage differences of 2V and (c) with blocked transmission of low mass ion (< 4800) and collision cell voltage differences of 80V. Charge states are given for […]
Antibody fragment ion signals are visible between m/z 1200 and 2300 in (c). Solvent: 200 mM ammonium acetate, pH 6.7.
(1 picture or pasted object on this page, not shown here)

[4] = ITC in PBS pH 7.4, 298 K, antibody 1.95 µM in cell, peptide 40 µM titrant, independent binding model, unitless number
[5] = ITC in PBS pH 7.4, 298 K, independent binding model, unitless number

KD [2, 4]	binding in solution (in words) ([2]; ITC, PBS pH 7.4, 298 K)	KD m0g# [1]	kD m0g# [1] [s⁻¹]	Kd [2, 4] [nM]	Compound	binding to anti-hcTn I antibody (in words) ([1]; ITEM analysis of peptide-antibody mixture, molar ratio 2.2:1)	binder group by ITEM-FOUR [1]	Initial [%] (immune complex amount at the lowest applied ∆CV) [1]	Final [%] (immune complex amount at the highest applied ∆CV) [1]	KA [2, 5]	∆H ([2]; ITC)	∆G ([2]; ITC)	T∆S ([2]; ITC)	complex formation with anti-Histag antibody (in words) [3]	ΔGm0g# [1] [kcal/mol]	ΔHm0g# [1] [kcal/mol]	TambΔSm0g# [1] [kcal/mol]	Slope [1] [%/V]
n.b.	did not bind in solution	–	–	–	ENREVGDWPKNIDAL [Peptide 7]	bound by the paratope in an unorthodox fashion	weak and unorthodox binder	15.37	5.90	n.b.	n.b.	n.b.	n.b.	no complex formation was detected	–	–	–	–
–	–	4.77 × 10^−12 Ø	7.37e+12	243	CC[C@H](C)[C@H](NC(=O)[C@H](CC(N)=O)NC(=O)[C@H](CCCCN)NC(=O)[C@H](CC(C)C)NC(=O)[C@H](Cc1c[nH]c2ccccc12)NC(=O)[C@H](CC(=O)O)NC(=O)CNC(=O)[C@@H](NC(=O)[C@H](CCC(=O)O)NC(=O)[C@H](CCCNC(=N)N)NC(=O)[C@H](CC(N)=O)NC(=O)[C@@H](N)CCC(=O)O)C(C)C)C(=O)N[C@@H](CC(=O)O)C(=O)N[C@@H](C)C(=O)N[C@@H](CC(C)C)C(=O)O [Peptide 4] (H-ENREVGDWLKNIDAL-OH)	–	strong binders (“strong binders” (group II) with ΔHm0g# values below −2 kJ/mol)	41.60	23.12	4.12 × 10^6 Ø	-12.45 kcal/mol	-9.027 kcal/mol	-3.425 kcal/mol	–	15.44	-0.538	-15.97	−0.35
–	–	4.62 × 10^−12 Ø	2.9e+12	411	CC[C@H](C)[C@H](NC(=O)[C@H](CC(N)=O)NC(=O)[C@H](CCCCN)NC(=O)[C@H](CCCNC(=N)N)NC(=O)[C@H](Cc1c[nH]c2ccccc12)NC(=O)CNC(=O)CNC(=O)[C@@H](NC(=O)[C@H](CCC(=O)O)NC(=O)[C@H](CCCNC(=N)N)NC(=O)[C@H](CC(N)=O)NC(=O)[C@@H](N)CCC(=O)O)C(C)C)C(=O)N[C@@H](CC(=O)O)C(=O)N[C@@H](C)C(=O)N[C@@H](CC(C)C)C(=O)O [Peptide 6] (H-ENREVGGWRKNIDAL-OH)	–	very strong binders (Peptides 1, 2, and 6 are “very strong binders” (group I) as their ΔHm0g# values of the gas-phase dissociation reaction are above −2 kJ/mol)	58.83	23.33	2.43 × 10^6 Ø	-10.85 kcal/mol	-8.721 kcal/mol	-2.13 kcal/mol	–	15.46	-0.442	-15.89	−0.75
